Drawing on patent US10844074B2, “Heterocycle compounds and uses thereof” (ZHEJIANG JIANFENG-YIEN BIOTECHNOLOGY CO., LTD., priority 2015, dated 2020), this text covers inhibition for 24 compounds.

One assay addresses EGFR T790M (Homo sapiens, UniProt P00533, T790M). Description: EGFR Enzyme Assay. It counts as biochemical. Conditions: 1 uM compound, read-out: T790M (% inh @ 1 uM). The procedure: The following TABLE III lists compounds representative of the invention and their activity in EGFR assays. In these assays, the following grading was used: A: >50% @1 μM; B: <50% @ 1 μM.
For another assay, the target named is BTK (Homo sapiens, UniProt Q06187). Description: BTK Enzyme Assay. Format: biochemical. To be noted: 1 uM compound; read-out: BTK (% inh @ 1 uM). The procedure: The following TABLE II lists compounds representative of the invention and their activity in BTK assays. In these assays, the following grading was used: A: >30% inhibition @1 μM; B: <30% inhibition @1 μM.
Sequence of BTK (Q06187 whole entry): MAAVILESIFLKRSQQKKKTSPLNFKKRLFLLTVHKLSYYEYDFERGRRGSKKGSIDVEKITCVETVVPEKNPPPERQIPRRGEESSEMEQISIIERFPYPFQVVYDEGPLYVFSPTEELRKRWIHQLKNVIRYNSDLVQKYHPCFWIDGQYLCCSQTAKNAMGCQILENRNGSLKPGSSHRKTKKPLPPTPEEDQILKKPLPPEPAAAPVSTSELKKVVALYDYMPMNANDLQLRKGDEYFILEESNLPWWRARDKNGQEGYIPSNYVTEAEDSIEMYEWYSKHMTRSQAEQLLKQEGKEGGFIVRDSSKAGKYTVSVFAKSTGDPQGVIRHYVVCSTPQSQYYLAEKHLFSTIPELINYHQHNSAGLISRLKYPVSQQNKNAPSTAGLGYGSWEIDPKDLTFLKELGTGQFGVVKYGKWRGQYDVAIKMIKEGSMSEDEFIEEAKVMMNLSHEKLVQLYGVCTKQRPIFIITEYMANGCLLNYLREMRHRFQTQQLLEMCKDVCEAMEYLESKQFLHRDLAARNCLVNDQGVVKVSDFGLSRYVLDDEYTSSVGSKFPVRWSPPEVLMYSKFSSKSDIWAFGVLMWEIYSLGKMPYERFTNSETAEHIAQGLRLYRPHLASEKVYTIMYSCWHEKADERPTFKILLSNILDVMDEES

The structures appear in SMILES notation. A value given as a limit tells only on which side of the number the result lay.

Sequence of EGFR T790M (P00533 25-1210 T790M): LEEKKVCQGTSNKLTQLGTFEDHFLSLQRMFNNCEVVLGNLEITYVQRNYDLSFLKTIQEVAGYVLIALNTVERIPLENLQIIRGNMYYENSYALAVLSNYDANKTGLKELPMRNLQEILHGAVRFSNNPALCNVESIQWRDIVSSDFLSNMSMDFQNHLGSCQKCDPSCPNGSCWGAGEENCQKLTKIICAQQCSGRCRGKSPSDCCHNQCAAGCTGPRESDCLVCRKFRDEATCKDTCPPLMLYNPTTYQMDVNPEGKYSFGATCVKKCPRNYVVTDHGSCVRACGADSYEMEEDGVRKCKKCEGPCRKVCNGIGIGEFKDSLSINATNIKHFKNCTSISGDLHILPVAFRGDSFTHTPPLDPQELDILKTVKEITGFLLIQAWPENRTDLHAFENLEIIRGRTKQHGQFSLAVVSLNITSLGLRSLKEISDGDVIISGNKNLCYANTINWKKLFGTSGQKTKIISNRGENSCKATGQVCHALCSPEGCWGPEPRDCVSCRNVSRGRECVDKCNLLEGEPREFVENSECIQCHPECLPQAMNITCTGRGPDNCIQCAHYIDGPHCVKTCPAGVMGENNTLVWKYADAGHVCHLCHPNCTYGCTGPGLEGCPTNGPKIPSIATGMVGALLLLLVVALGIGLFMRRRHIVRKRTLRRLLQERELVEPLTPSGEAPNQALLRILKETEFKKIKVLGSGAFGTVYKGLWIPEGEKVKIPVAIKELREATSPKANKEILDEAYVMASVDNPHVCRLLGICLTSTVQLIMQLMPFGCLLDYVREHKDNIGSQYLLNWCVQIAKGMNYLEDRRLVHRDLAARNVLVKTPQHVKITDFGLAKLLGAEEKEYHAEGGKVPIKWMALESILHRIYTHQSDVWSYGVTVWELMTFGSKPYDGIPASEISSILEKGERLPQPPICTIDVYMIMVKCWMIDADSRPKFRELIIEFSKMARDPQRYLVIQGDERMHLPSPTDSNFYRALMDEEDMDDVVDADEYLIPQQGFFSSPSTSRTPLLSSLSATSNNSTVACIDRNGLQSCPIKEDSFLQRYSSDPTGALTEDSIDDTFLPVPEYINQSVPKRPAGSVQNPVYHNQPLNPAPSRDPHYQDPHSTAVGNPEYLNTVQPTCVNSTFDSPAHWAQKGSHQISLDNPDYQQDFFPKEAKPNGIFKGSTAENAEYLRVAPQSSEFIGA

With `C=CC(=O)Nc1cc(NC2=NC(c3cccc(N(C)C)c3)C3SC=CC3=N2)c(OC)cc1N1CCN(C)CC1` (stereo not shown) [Compound 6, N-[5-[[4-[3-(dimethylamino)phenyl]-4,4a-dihydrothieno[3,2-d]pyrimidin-2-yl]amino]-4-methoxy-2-(4-methylpiperazin-1-yl)phenyl]prop-2-enamide], the inhibition at 1 µM on EGFR T790M is less than 50%; on BTK it was greater than 30%. The corresponding values for `C=CC(=O)Nc1cc(NC2=NC(c3cccc(N(C)C)c3)C3SC=CC3=N2)c(OC)cc1N1CCOCC1` (stereo not shown) [Compound 10, N-[5-[[4-[3-(dimethylamino)phenyl]-4,4a-dihydrothieno[3,2-d]pyrimidin-2-yl]amino]-4-methoxy-2-morpholino-phenyl]prop-2-enamide] are greater than 50% and greater than 30%. Regarding `C=CC(=O)Nc1cc(NC2=NC(c3cccc(NC)c3)C3SC=CC3=N2)c(OC)cc1N(C)CCN1CCOCC1` (stereo not shown) [Compound 9, N-[4-methoxy-5-[[4-[3-(methylamino)phenyl]-4,4a-dihydrothieno[3,2-d]pyrimidin-2-yl]amino]-2-[methyl(2-morpholinoethyl)amino]phenyl]prop-2-enamide], the values for the inhibition at 1 µM on EGFR T790M and on BTK were less than 50% and greater than 30%, respectively. Take `C=CC(=O)Nc1cc(Nc2nc(-c3cccc(NC)c3)c3ccsc3n2)c(OC)cc1N(C)CC` [Compound 41, N-[2-[ethyl(methyl)amino]-4-methoxy-5-[[4-[3-(methylamino)phenyl]thieno[2,3-d]pyrimidin-2-yl]amino]phenyl]prop-2-enamide]: the results for the inhibition at 1 µM at EGFR T790M and at BTK were greater than 50% and greater than 30%, respectively. On the same counts, the results for `C=CC(=O)Nc1cc(Nc2nc(-c3c[nH]c4ccccc34)c3sccc3n2)c(OC)cc1N(C)CCN(C)C` [Compound 1, N-[2-[2-(dimethylamino)ethyl-methyl-amino]-5-[[4-(1H-indol-3-yl)thieno[3,2-d]pyrimidin-2-yl]amino]-4-methoxy-phenyl]prop-2-enamide] are greater than 50% and greater than 30%. Regarding `C=CC(=O)Nc1cc(NC2=NC(c3ccccc3)C3SC=CC3=N2)c(OC)cc1N1CCN(C)CC1` (stereo not shown) [Compound 18, N-[4-methoxy-2-(4-methylpiperazin-1-yl)-5-[(4-phenyl-4,4a-dihydrothieno[3,2-d]pyrimidin-2-yl)amino]phenyl]prop-2-enamide], the inhibition at 1 µM is greater than 50% on EGFR T790M and less than 30% on BTK. The corresponding values for `C=CC(=O)Nc1cc(Nc2nc(-c3ccccc3N(C)C)c3ccsc3n2)c(OC)cc1N1CCN(C)CC1` [Compound 50, N-[5-[[4-[2-(dimethylamino)phenyl]thieno[2,3-d]pyrimidin-2-yl]amino]-4-methoxy-2-(4-methylpiperazin-1-yl)phenyl]prop-2-enamide] are less than 50% and greater than 30%.

For the compound `C=CC(=O)Nc1cc(N(C)c2nc(-c3cn(C)c4ccccc34)c3sccc3n2)c(OC)cc1N1CCOCC1` [Compound 52, N-[4-methoxy-5-[methyl-[4-(1-methylindol-3-yl)thieno[3,2-d]pyrimidin-2-yl]amino]-2-morpholino-phenyl]prop-2-enamide], the inhibition at 1 µM at EGFR T790M is less than 50%; at BTK it was less than 30%. `C=CC(=O)Nc1cc(Nc2nc(-c3ccccc3NC)c3ccsc3n2)c(OC)cc1N1CCN(C)CC1` [Compound 43, N-[4-methoxy-5-[[4-[2-(methylamino)phenyl]thieno[2,3-d]pyrimidin-2-yl]amino]-2-(4-methylpiperazin-1-yl)phenyl]prop-2-enamide]: the figures for the inhibition at 1 µM on EGFR T790M and at BTK were less than 50% and less than 30%, respectively. Consider `C=CC(=O)Nc1cc(Nc2nc(-c3cccc(N(C)C)c3)c3sccc3n2)c(OC)cc1N1CCN(C)CC1` [Compound 24, N-[5-[[4-[3-(dimethylamino)phenyl]thieno[3,2-d]pyrimidin-2-yl]amino]-4-methoxy-2-(4-methylpiperazin-1-yl)phenyl]prop-2-enamide], for which the inhibition at 1 µM was less than 50% at EGFR T790M and greater than 30% on BTK. For the compound `C=CC(=O)Nc1cc(Nc2nc(-c3cccc(NC)c3)c3ccsc3n2)c(OC)cc1N(C)CCN(C)C` [Compound 33, N-[2-[2-(dimethylamino)ethyl-methyl-amino]-4-methoxy-5-[[4-[3-(methylamino)phenyl]thieno[2,3-d]pyrimidin-2-yl]amino]phenyl]prop-2-enamide], the inhibition at 1 µM at BTK is less than 30%. Same read-out and setting: the figure for `C=CC(=O)Nc1cc(NC2=NC(c3cccc(NC)c3)C3SC=CC3=N2)c(OC)cc1OCCN(C)C` (stereo not shown) [Compound 13, N-[2-[2-(dimethylamino)ethoxy]-4-methoxy-5-[[4-[3-(methylamino)phenyl]-4,4a-dihydrothieno[3,2-d]pyrimidin-2-yl]amino]phenyl]prop-2-enamide] is greater than 30%.

In the case of `C=CC(=O)Nc1cc(Nc2nc(-c3ccccc3)c3sccc3n2)c(OC)cc1N1CCN(C)CC1` [Compound 26, N-[4-methoxy-2-(4-methylpiperazin-1-yl)-5-[(4-phenylthieno[3,2-d]pyrimidin-2-yl)amino]phenyl]prop-2-enamide], the inhibition at 1 µM was less than 50% at EGFR T790M and greater than 30% on BTK.

For `C=CC(=O)Nc1cc(NC2=NC(c3cccc(NC(C)(C)C)c3)C3SC=CC3=N2)c(OC)cc1N(C)C` (stereo not shown) [Compound 5, N-[5-[[4-[3-(tert-butylamino)phenyl]-4,4a-dihydrothieno[3,2-d]pyrimidin-2-yl]amino]-2-(dimethylamino)-4-methoxy-phenyl]prop-2-enamide], the inhibition at 1 µM on EGFR T790M was greater than 50%; on BTK, greater than 30%. With `C=CC(=O)Nc1cc(Nc2nc(-c3cccc(NC)c3)c3sccc3n2)c(OC)cc1OCCN1CCOCC1` [Compound 35, N-[4-methoxy-5-[[4-[3-(methylamino)phenyl]thieno[3,2-d]pyrimidin-2-yl]amino]-2-(2-morpholinoethoxy)phenyl]prop-2-enamide], the inhibition at 1 µM at EGFR T790M was greater than 50%; at BTK, less than 30%. For the compound `C=CC(=O)Nc1cc(Nc2nc(-c3ccccc3)c3ccsc3n2)c(OC)cc1N(C)CCN(C)C` [Compound 32, N-[2-[2-(dimethylamino)ethyl-methyl-amino]-4-methoxy-5-[(4-phenylthieno[2,3-d]pyrimidin-2-yl)amino]phenyl]prop-2-enamide], the inhibition at 1 µM at BTK was greater than 30%. On the same count and under the same terms, the figure for `C=CC(=O)Nc1cc(Nc2nc(-c3ccc(NC(C)(C)C)cc3)c3sccc3n2)c(OC)cc1N1CCN(C)CC1` [Compound 27, N-[5-[[4-[4-(tert-butylamino)phenyl]thieno[3,2-d]pyrimidin-2-yl]amino]-4-methoxy-2-(4-methylpiperazin-1-yl)phenyl]prop-2-enamide] is greater than 30%. Consider `C=CC(=O)Nc1cc(Nc2nc(-c3ccc(NC)cc3)c3sccc3n2)c(OC)cc1N1CCOCC1` [Compound 37, N-[4-methoxy-5-[[4-[4-(methylamino)phenyl]thieno[3,2-d]pyrimidin-2-yl]amino]-2-morpholino-phenyl]prop-2-enamide], for which the values for the inhibition at 1 µM at EGFR T790M and on BTK were greater than 50% and greater than 30%, respectively. Consider `C=CC(=O)Nc1cc(Nc2nc(-c3cn(C)c4ccccc34)c3sccc3n2)c(OC)cc1OCCN1CCOCC1` [Compound 34, N-[4-methoxy-5-[[4-(1-methylindol-3-yl)thieno[3,2-d]pyrimidin-2-yl]amino]-2-(2-morpholinoethoxy)phenyl]prop-2-enamide], for which the inhibition at 1 µM at BTK was less than 30%. Take `C=CC(=O)Nc1cc(NC2=NC(c3cccc(NC)c3)C3SC=CC3=N2)c(OC)cc1N1CCC(C(=O)N(C)C)CC1` (stereo not shown) [Compound 17, 1-[5-methoxy-4-[[4-[3-(methylamino)phenyl]-4,4a-dihydrothieno[3,2-d]pyrimidin-2-yl]amino]-2-(prop-2-enoylamino)phenyl]-N,N-dimethyl-piperidine-4-carboxamide]: on BTK, the inhibition at 1 µM was less than 30%. `C=CC(=O)Nc1cc(Nc2nc(-c3cn(C)c4ccccc34)c3sccc3n2)c(OC)cc1N1CCOCC1` [Compound 36, N-[4-methoxy-5-[[4-(1-methylindol-3-yl)thieno[3,2-d]pyrimidin-2-yl]amino]-2-morpholino-phenyl]prop-2-enamide]: the inhibition at 1 µM is less than 50% on EGFR T790M and greater than 30% on BTK. In the case of `C=CC(=O)Nc1cc(Nc2nc(-c3ccccc3NC)c3sccc3n2)c(OC)cc1N(C)CCN(C)C` [Compound 31, N-[2-[2-(dimethylamino)ethyl-methyl-amino]-4-methoxy-5-[[4-[2-(methylamino)phenyl]thieno[3,2-d]pyrimidin-2-yl]amino]phenyl]prop-2-enamide], the inhibition at 1 µM on BTK is less than 30%.

Take `C=CC(=O)Nc1cc(Nc2nc(-c3c[nH]c4ccccc34)c3sccc3n2)c(OC)cc1N1CCC(N(C)C)CC1` [Compound 2, N-[2-[4-(dimethylamino)-1-piperidyl]-5-[[4-(1H-indol-3-yl)thieno[3,2-d]pyrimidin-2-yl]amino]-4-methoxy-phenyl]prop-2-enamide]: the inhibition at 1 µM was greater than 50% on EGFR T790M and greater than 30% at BTK.

Take `C=CC(=O)Nc1cc(NC2=NC(c3cccc(NC(C)(C)C)c3)C3SC=CC3=N2)c(OC)cc1N1CCOCC1` (stereo not shown) [Compound 11, N-[5-[[4-[3-(tert-butylamino)phenyl]-4,4a-dihydrothieno[3,2-d]pyrimidin-2-yl]amino]-4-methoxy-2-morpholino-phenyl]prop-2-enamide]: the inhibition at 1 µM at BTK was greater than 30%.
